Laboratory results reported in paper PMC6268433, “New Sorafenib Derivatives: Synthesis, Antiproliferative Activity Against Tumour Cell Lines and Antimetabolic Evaluation” (Molecules, 2012).

Key:
[1] = tested on: H 460 (lung carcinoma); assay: Cytostatic activity, MTT assay; type: cell-based, human; conditions: Homo sapiens, NCI-H460, 72 h, read-out: Tumour cell growth/IC50 H 460
Description: (§1) The experiments were carried out on six human tumour and one murine cell lines, which are derived from five solid tumour types and two (one murine and one human) suspension tumour cell lines. The following cell lines were used: HCT 116 (colon carcinoma), SW 620 (colon carcinoma), MCF-7 (breast carcinoma), H 460 (lung carcinoma), L1210 (murine leukemia), CEM (human lymphoma) and HeLa (cervix carcinoma). […] Compounds 3d and 3e with a benzene ring in the amide moiety, exerted a somewhat stronger (but still rather poor) cytostatic effect (IC50 ≈ 20-90 µM). […] The compounds were also equally cytostatic against primary human embryonic lung (HEL) fibroblast cells (Table 2). The obtained data clearly point to the obligatory presence of the [4-chloro-3-(trifluoromethyl)phenyl]carbamoyl group being crucial for high potency. Also, the 4a–e series of compounds are far more lipophilic than the 2 and 3 series of compounds, which may be related to their increased cytostatic potential.
(§2) HCT 116, SW 620, MCF-7, and H 460 cells were cultured as monolayers and maintained in Dulbecco’s modified Eagle medium (DMEM), supplemented with 10% fetal bovine serum (FBS), 2 mmol·L^–1 L-glutamine, 100 U·mL^–1 penicillin and 100 μg·mL^–1 streptomycin in a humidified atmosphere with 5% CO2 at 37 °C. The growth inhibition activity was assessed as described previously, according to the slightly modified procedure of the National Cancer Institute, Developmental Therapeutics Program. Briefly, the cells were seeded onto standard 96-well microtiter plates on day 0. The cell concentrations were adjusted according to the cell population doubling time (PDT): 3000 cells/well for HCT116 and SW 620 cell lines (PDT = 20–24 h) and 4,000 cells/well for MCF-7 cell lines (PDT = 33 h). Tested agents were then added in five consecutive 10-fold dilutions (10^–8 to 10^–4 mol·L^–1) and incubated for further 72 h. Working dilutions were freshly prepared on the day of testing. The solvent (DMSO) was also tested for eventual inhibitory activity by adjusting its concentration to be the same as in working concentrations (maximal concentration of DMSO was 0.25%). After 72 h of incubation, the cell growth rate was evaluated by performing the MTT assay (Promega) which detects dehydrogenase activity in viable cells. The absorbency (OD, optical density) was measured on a microplate reader at 570 nm. Each test point was performed in quadruplicate in at least three individual experiments. The results are expressed as IC50, which is the concentration necessary for 50% of inhibition. […] Each result is a mean value from three separate experiments.

[2] = tested on: HCT 116 (colon carcinoma); assay: Cytostatic activity, MTT assay; type: cell-based, human; conditions: Homo sapiens, HCT-116, 72 h, read-out: Tumour cell growth/IC50 HCT 116
Description: as §1, §2

[3] = tested on: MCF-7 (breast carcinoma); assay: Cytostatic activity, MTT assay; type: cell-based, human; conditions: Homo sapiens, MCF7, 72 h, read-out: Tumour cell growth/IC50 MCF-7
Description: as §1, §2

[4] = tested on: SW 620 (colon carcinoma); assay: Cytostatic activity, MTT assay; type: cell-based, human; conditions: Homo sapiens, SW-620, 72 h, read-out: Tumour cell growth/IC50 SW 620
Description: as §1, §2

[5] = tested on: CEM (human lymphoma); assay: Cytostatic activity, Coulter counter; type: cell-based; conditions: Homo sapiens; 72 h, cell number by Coulter counter; read-out: Tumour cell growth/IC50 CEM
Description: as §1
(§3) The cytostatic activity of the tested compounds against murine leukemia L1210, human cervix carcinoma HeLa, human embrionic lung (HEL) and T-lymphocyte CEM cells was determined with cells grown in suspension (L1210, CEM) or monolayers (HeLa, HEL) in 200 µL-wells of 96-well microtiter plates (initial cell number: 5–7.5 × 10^4 cells/well). After 48 (L1210) or 72 (CEM, HeLa, HEL) h, the tumour cell number was determined by the use of a Coulter counter.

[6] = tested on: L1210 (murine leukemia); assay: Cytostatic activity, Coulter counter; type: cell-based; conditions: Mus musculus, L1210; 48 h, cell number by Coulter counter; read-out: Tumour cell growth/IC50 L1210
Description: as §1, §3

[7] = tested on: primary human embryonic lung (HEL) fibroblast cells; assay: Cytostatic activity, Coulter counter; type: cell-based; conditions: Homo sapiens, Fibroblast; 72 h, cell number by Coulter counter; primary fibroblasts
Description: as §1, §3

[8] = tested on: HeLa (cervix carcinoma); assay: Cytostatic activity, Coulter counter; type: cell-based, human; conditions: Homo sapiens, HeLa; 72 h, cell number by Coulter counter; read-out: Tumour cell growth/IC50 HeLa
Description: as §1, §3

[9] = tested on: DNA synthesis in CEM cells; assay: Antimetabolic activity: [CH3-3H]dThd incorporation (DNA synthesis) in CEM cell cultures; type: cell-based; conditions: Homo sapiens, CCRF-CEM, ~20 h, TCA-insoluble material
Text: (§4) A variety of compounds (2a, 3a, 4a with a cycloalkyl substituent directly attached to nitrogen atom, 2c, 3c, 4c with a cycloalkyl bound to nitrogen through a short spacer and 2e, 3e, 4e with an aromatic substituent) have been investigated on their inhibitory activity against DNA, RNA and protein synthesis in CEM cell cultures. The compounds were equally inhibitory to dThd (DNA synthesis), Urd (RNA synthesis) and Leu (protein synthesis) incorporation into TCA-insoluble cell material. The 2 series of compounds were least inhibitory whereas the 4 series were most inhibitory (IC50 in the lower micromolar range). Their antimetabolic IC50 values closely corresponded to their antiproliferative IC50 values. They also behaved as sorafenib in terms of antimetabolic potential (Table 3).
(§5) The procedures have been modified from previously described methods. Human CEM cells were seeded in 96-well microtiter plates at 10 × 10^4 cells/200 µL-well in the presence of serial dilutions of the tested compounds. Then, 0.25 µCi of [CH3-^3H]dThd (radiospecificity: 52 Ci/mmol) or 1 µCi of [5-^3H]Urd (radiospecificity: 26 Ci/mmol) or [4,5-^3H]Leu (radiospecificity: 160 Ci/mmol) were added and the drug-exposed tumour cell cultures further incubated at 37 °C for ~20 h. Then the content of each well was transfered to glass fiber discs (Wattman, GE Healthcare, Maidstone, UK), mounted on a manifold (Millipore, Billerica, MA, USA) and subsequently washed with PBS (to remove the radiolabel material that has not been incorporated in the cellular macromolecules), 10% and 5% trichoroacetic acid (TCA) (to precipitate DNA, RNA and proteins) and ethanol. Then, the radioactivity (TCA precipitate) associated with each disc was determined in a liquid scintillation counter (Packard, Palo Alto, CA, USA).

[10] = tested on: RNA synthesis in CEM cells; assay: Antimetabolic activity: [5-3H]Urd incorporation (RNA synthesis) in CEM cell cultures; type: cell-based; conditions: Homo sapiens, CCRF-CEM, ~20 h, TCA-insoluble material
Text: as §4, §5

[11] = tested on: protein synthesis in CEM cells; assay: Antimetabolic activity: [4,5-3H]Leu incorporation (protein synthesis) in CEM cell cultures; type: cell-based; conditions: Homo sapiens, CCRF-CEM, ~20 h, TCA-insoluble material
Text: as §4, §5

[12] = tested on: CaCo-2 cell cultures; assay: Uptake at apical side and release at basolateral side of CaCo-2 cell cultures; type: in vitro ADME, human; conditions: 100 µmol·L^–1 at apical side, 0-24 h, HPLC
Text: Derivatives 2a, 3a and 4a have been examined for their efficiency of uptake at the apical site and subsequent delivery at the basolateral site of colon carcinoma CaCo-2 cell cultures. This model system can be used to predict the potential of a drug to show oral bioavailability. Sorafenib was included as the reference compound. […] The molecular basis of this phenomenon is yet unclear.
Figure 1 Release of the tested compounds at the basolateral side by CaCo-2 cell cultures. Hundred micromolar concentrations of the tested compounds were added at the apical side of confluent CaCo-2 cell cultures, and the appearance of the intact tested compound at the basolateral side was measured by HPLC analysis.
Human colon carcinoma CaCo-2 cells were seeded in the inner wells of a double-chamber-well-tray at 150,000 cells (0.5 mL) per 1 mL-well. The outer wells also contain 0.5 mL medium (without cells). After the cells were grown to confluency (~2 days) at 37 °C in a humidified CO2-controlled atmosphere, 100 µmol·L^–1 tested compound (final concentration) was added to the inner well, and the medium from the outer wells was replaced by 800 µL PBS (containing 10% foetal bovine serum). At different time points (i.e., 0, 2, 4, 6, 8 and 24 h), 50 µL was removed from the outer wells and mixed with 100 µL cold methanol. The mixture was left on ice for 10 min, centrifuged to remove the precipitate, and the supernatant was analysed by HPLC (reversed phase) to determine the drug concentration that appeared in the outer wells (reflecting basolateral drug efflux) in function of time.

[13] = tested on: panel of carcinoma, lymphoma and leukemia tumour cell lines; assay: Cytostatic activity across the panel of tumour cell lines; type: cell-based; conditions: Table 2; read-out: IC50 (cytostatic effect, range over cell lines)
Description: as §1, with “The obtained data clearly point to the obligatory presence of the [4-chloro-3-(trifluoromethyl)phenyl]carbamoyl group being crucial for high potency. Also, the 4a–e series of compounds are far more lipophilic than the 2 and 3 series of compounds, which may be related to their increased cytostatic potential.” left out
HCT 116, SW 620, MCF-7, and H 460 cells were cultured as monolayers and maintained in Dulbecco’s modified Eagle medium (DMEM), supplemented with 10% fetal bovine serum (FBS), 2 mmol·L^–1 L-glutamine, 100 U·mL^–1 penicillin and 100 μg·mL^–1 streptomycin in a humidified atmosphere with 5% CO2 at 37 °C. The growth inhibition activity was assessed as described previously, according to the slightly modified procedure of the National Cancer Institute, Developmental Therapeutics Program. […] After 72 h of incubation, the cell growth rate was evaluated by performing the MTT assay (Promega) which detects dehydrogenase activity in viable cells. The absorbency (OD, optical density) was measured on a microplate reader at 570 nm. […]

Compound | IC50 [1] [µM] | IC50 [2] [µM] | IC50 [3] [µM] | IC50 [4] [µM] | IC50 [5] [µM] | IC50 [6] [µM] | IC50 [7] [µM] | IC50 [8] [µM] | IC50 [9] [µM] | IC50 [10] [µM] | IC50 [11] [µM] | Drug delivery at the basolateral site compared with sorafenib [12] | IC50 [13] [µM] | melting point [°C]
O=C(NC1CCCC1)c1cc(Cl)ccn1 [Compound 2a, 4-Chloro-N-cyclopentylpyridine-2-carboxamide] | ≥ 100 | > 100 | > 100 | > 100 | > 100 | > 100 | > 100 | > 100 | > 100 | > 100 | > 100 | higher drug delivery at the basolateral site than sorafenib | – | –
Nc1ccc(Oc2ccnc(C(=O)NC3CCCC3)c2)cc1 [Compound 3a, 4-(4-Aminophenoxy)-N-cyclopentylpyridine-2-carboxamide] | > 100 | 54 ± 21 | 53 ± 40 | ≥ 100 | ≥ 100 | 121 ± 50.5 | > 100 | 77 ± 3.4 | > 100 | > 100 | > 100 | higher drug delivery at the basolateral site than sorafenib | – | –
Nc1ccc(Oc2ccnc(C(=O)NCc3ccccc3)c2)cc1 [Compound 3d, 4-(4-Aminophenoxy)-N-benzylpyridine-2-carboxamide] | 42 ± 9 | 29 ± 4 | 29 ± 13 | 37 ± 6 | 94 ± 2.2 | 66 ± 3.1 | > 100 | 94 ± 1.9 | – | – | – | – | 20 to 90 | –
Nc1ccc(Oc2ccnc(C(=O)NCCc3ccccc3)c2)cc1 [Compound 3e, 4-(4-Aminophenoxy)-N-phenylethylpyridine-2-carboxamide] | 20 | 25 ± 2 | 34 ± 17 | 20 ± 7 | 42 ± 3 | 63 ± 8.9 | > 100 | 39 ± 3 | > 100 | 49.9 ± 17.9 | > 100 | – | 20 to 90 | –
O=C(Nc1ccc(Oc2ccnc(C(=O)NC3CCCC3)c2)cc1)Nc1ccc(Cl)c(C(F)(F)F)c1 [Compound 4a, 4-[4-[[4-Chloro-3-(trifluoromethyl)phenyl]carbamoylamino]phenoxy]-N-cyclopentyl-pyridine-2-carboxamide] | 1 | 3 ± 0.5 | 4 ± 1 | 2 ± 0.4 | 4.2 ± 0.6 | 4.2 ± 0.8 | 2.8 | 3.1 ± 0.6 | 12.5 ± 6.7 | 7.7 ± 2.1 | 6.1 ± 0.7 | less efficient than the reference compound | – | –
O=C(Nc1ccc(Oc2ccnc(C(=O)NCC3CCCCC3)c2)cc1)Nc1ccc(Cl)c(C(F)(F)F)c1 [Compound 4c, 4-[4-[[4-Chloro-3-(trifluoromethyl)phenyl]carbamoylamino]phenoxy]-N-cyclohexylmethyl-pyridine-2-carboxamide] | 2 ± 0.2 | 3 ± 1 | 2 ± 0.1 | 3 ± 0.4 | 2 ± 0.5 | 1.8 ± 0.3 | 2.9 | 2.7 ± 1.8 | 20.1 ± 10.9 | 12.2 ± 8.4 | 27.4 ± 12.7 | – | – | 156 to 160
